From US20210380952A1, “Method to Produce Virus in Cultured Cells Supplemented With Alpha-Ketoglutarate” (THE TRUSTEES OF PRINCETON UNIVERSITY, priority 2012, published 2021) come the findings set out here.

Where two headings read alike, the source gives them in different places. Some results are limits rather than exact numbers.

Data set [1] has as its system VZV. Put plainly: Yield of cell-free VZV from infected MRC5 cells, plaque assay on ARPE-19 cells. The format is cell-based, varicella zoster virus. The conditions noted are these: for VZV yield, fold change relative to no treatment (NT): added 6 hpi; for VZV yield, fold change relative to no treatment (NT) / VZV yield relative to no treatment (NT): MOI 1:50, 72 h; for VZV yield relative to no treatment (NT): 25 μM fatty acid plus 10 μM αT, 6 h after infection, sonicated immediately. The protocol:
For this test, MRC5 cells (passage 20-25) were seeded at a density of 300.000 cell/100 mm culture dish and grown in 15 ml of DMEM containing 10% fetal calf serum plus 2 mM GlutaMAX (GIBCO®, GlutaMAX™) at 35° C. A lipid mixture (LM-1, 1 ml/liter medium, Sigma Aldrich #L5146) was added to the cells either at the time of seeding or 1 day after seeding. Three days later, the culture medium was replaced with 10 ml growth medium containing 50 mM sucrose as a stabilizer. The cells were further incubated for 3 days and growth medium was replaced with fresh medium containing no sucrose. After cells reached confluence, they were infected with VZV by adding infected cells (1 infected cell/50 uninfected cells; infected cells were from a preparation frozen in a solution of 10% DMSO plus 90% fetal calf serum and stored in liquid nitrogen). At the time of infection, the cultures were re-fed with DMEM containing 10% fetal calf serum plus 2 mM glutamax. Arachidonic acid (AA)+alpha-tocopherol (αT) or DHA+αT were added at the indicated times. 72 hours after infection, cells were washed twice with PBS, and incubated in 10 ml of PBS containing 50 mM ammonium chloride for 50 minutes at 4° C. The cells were harvested and frozen in PSGC buffer (Harper et al., Arch Virol 143:1163-70, 1998) at −80° C. Infectious virus was subsequently quantified by plaque assay of sonicated cells on ARPE-19 cells (American Type Culture Collection). Results are set out in FIG. 3.
Briefly, in these repeat experiments, MRC5 cells were infected with VZV at an MOI=1:50. AA, DHA, and αT were added to the cells at 6 hpi as indicated. 72 hours after infection, the cells were harvested into PSGC buffer and frozen at −80° C. for later processing. After thawing, the cells were sonicated and the yield of cell free VZV quantified by standard plaque assay on ARPE-19 cells. Fold change relative to no treatment (NT) is shown. […] The fold-changes are the average of two independent infections.
In brief, MRC5 cells were infected with VZV at an MOI=1:50. Lipid mixture 1(LM-1) was added to the cells immediately after cell seeding. At 6 hours after infection, up to about 100 μM AA or […] was added to cells together with up to about 10 μM αT. 72 hours after infection, the cells were harvested into PSGC buffer and either frozen at −80° C. and sonicated later for the release of virus (frozen cells) or immediately sonicated after harvesting and supernatants containing the cell-free VZV were frozen at −80° C. (frozen sup.) prior to titration. Cell-free VZV yield was quantified by plaque assay on APRE-19 cells. Fold change relative to no treatment (NT) is shown. The numbers above the bars indicate the amount of virus obtained per ml in the corresponding treatment. The results are set out in FIG. 5.
Briefly, MRC5 cells were infected with VZV at an MOI=1:50. Six hours after infection cells were treated with indicated combinations of lipids plus 10 μM αT. Hexacosanoic acid (HSA) and octacosanoic acid (OSA) were dissolved in 20 mg/ml α-cyclodextin (Sigma-Aldrich) in PBS by sonication and added to a solution of 10 mg/ml fatty acid-free BSA (Sigma-Aldrich) in PBS (1:1, v/v) to give a stock concentration of 10 mM for each fatty acid. HSA, OSA, and DHA were used at 25 μM, and AA was used at 25 μM. Two sets of fatty acid concentrations was used for combination treatments: DHA, AA, and HSA was either added at concentrations of 25 μM, 100 μM, and 25 μM (high), or 10 μM, 50 μM, and 10 μM (low), respectively. 72 hours after infection, the cells were harvested into PSGC buffer, sonicated immediately and the yield of cell free VZV quantified by plaque assay on ARPE-19 cells. Fold change relative to no treatment (NT) is shown. The fold-changes are the average of two independent infections.
Briefly, MRC5 cells were grown in DMEM containing 10% fetal calf serum, 2 mM GlutaMAX) at 35° C. as described in the text. […]

For data set [2], the system named is VZV. The data set is described as above. The data set is classed as cell-based, varicella zoster virus. The conditions noted are these: for VZV yield relative to no treatment (NT): with 10 μM α-T, 6 h after infection, HSA and DHA 25 μM, AA 100 μM, MOI 1:100, 72 hours post infection; for VZV yield, factor of increase: MOI 1:250, 72 h.
The test system of the next data set is AD169 strain of HCMV. The data set is classed as cell-based, human cytomegalovirus. The conditions noted are these: for HCMV yield, fold change relative to no treatment (NT): MRC5, 0.5 IU/cell, 96 h after infection. The protocol: Cells were infected with the AD169 strain of HCMV at a multiplicity of 0.5 infectious units/cell, and immediately following a 2-hour adsorption period, cells were fed with medium (Dulbecco's Modified Eagle Medium, DMEM) containing 10% fetal calf serum plus various fatty acids, cholesterol and carbonyl scavenging compound. At 96 hours post infection, infectious virus in the medium was assayed by fluorescent focus assay using antibody to the HCMV IE1 protein.
Briefly, About 90% confluent MRC5 human fibroblasts were infected with HCMV at a multiplicity of 0.5 IU/cell. Two hours after infection, medium was replaced with fresh medium containing 10% fetal calf serum and either of oleic acid (OA, up to about 100 μM), linoliec acid (LA, up to about 100 μM), a-linolenic acid (LLA, up to about 100 μM), eicosapentaenoic acid (EPA, up to about 75 μM), or docosahexaenoic acid (DHA, up to about 50 μM). The experiment was also performed in the presence of either aminoguanidine (AG, up to about 250 μM) or cholesterol (chol., up to about 13 μM). Virus production at 96 hours after infection was determined by fluorescent focus assay in MRC-5 cells and shown as a fold change relative to no treatment (NT) which was 5×10^5 infectious units. The fold-changes are the average of two independent infections.
Briefly, about 90% confluent MRC5 fibroblasts were infected with HCMV at a multiplicity of 0.5 IU/cell. Two hours after infection, medium was replaced with fresh medium containing 10% fetal calf serum and α-tocopherol (α-T) or aminoguanidine (AG) at indicated concentrations. Virus production at 96 h after infection was determined by fluorescent focus assay in which MRC-5 cells and shown as a fold change relative to no treatment (NT). The fold-changes are the average of two independent infections. Results are set out in FIG. 2.
MRC5 fibroblasts were infected with the AD169 strain of HCMV at a multiplicity of 0.5 infectious units/cell in glutamine/GlutaMAX-free DMEM containing 10% dialyzed FCS. The dialyzed serum was used to completely eliminate the glutamine in the culture medium. The cells received either 2 mM GlutaMAX, which served as a control, or 7 mM α-kg. At 96 hours post infection, infectious virus in the medium was assayed by fluorescent focus assay using antibody to the HCMV IE1 protein.

Another data set concerns MRC5 cells. Put plainly: Cytotoxicity evident upon visual inspection of treated infected cells. Particulars: 100 μM fatty acid; VZV-infected MRC5 cells. The data set is classed as cell-based, human.
The mark [3] stands for this setting: 25 μM fatty acid, absence of αT.
The mark [4] stands for this setting: additive alone in medium from 2 h after infection, OA, LA, LLA up to about 100 μM, EPA 75 μM, DHA 50 μM, AG 250 μM, chol. 13 μM.
[5] abbreviates: fatty acid together with aminoguanidine (up to about 250 μM).

On to `CCCCC/C=C\C/C=C\C/C=C\C/C=C\CCCC(=O)O` [AA, arachidonic acid], for which the “VZV yield, fold change relative to no treatment (NT)” value with VZV [1] (25 μM fatty acid in the presence of αT) is “increased the virus yield”; in the data set on VZV [1] (setting [3]), “enhanced the yield of virus”; in the data set with VZV [1] (100 μM fatty acid, absence of αT), “inhibited virus production”; with VZV [2] (100 μM fatty acid in the presence of αT, added 6 hpi, MOI 1:50, 72 h) it was 5 fold. Besides, the “VZV yield relative to no treatment (NT)” value in the data set on VZV [2] was “elevated the yield of VZV”.

As to `CC/C=C\C/C=C\C/C=C\C/C=C\C/C=C\C/C=C\CCC(=O)O` [DHA, docosahexaenoic acid], the “HCMV yield, fold change relative to no treatment (NT)” value with AD169 strain of HCMV (setting [4]) stood at 4.6 fold. For the same compound, the “VZV yield, fold change relative to no treatment (NT)” value with VZV [1] (setting [3]) is given as “about 1.5 fold”. For the same compound, the “Cytotoxicity / cellular toxicity” value with MRC5 cells is on record as “toxic in the absence or presence of αT”.

Regarding `CC/C=C\C/C=C\C/C=C\C/C=C\C/C=C\CCCC(=O)O` [EPA, eicosapentaenoic acid], the “HCMV yield, fold change relative to no treatment (NT)” value in the data set on AD169 strain of HCMV (setting [4]) is reported as 2.5 fold.

As to `CCCCCCCCCCCCCCCCCCCCCCCCCC(=O)O` [HSA, hexacosanoic acid], the “VZV yield relative to no treatment (NT)” value with VZV [1] is “improved virus yields in comparison to no treatment”; with VZV [2], “elevated the yield of VZV”.

As to `CCCCC/C=C\C/C=C\CCCCCCCC(=O)O` [LA, linoleic acid], the results for the “HCMV yield, fold change relative to no treatment (NT)” value with AD169 strain of HCMV (setting [4]) and in the data set with AD169 strain of HCMV (setting [5]) were “had little effect on the yield” and “reduced”, respectively.

For the compound `CC/C=C\C/C=C\C/C=C\CCCCCCCC(=O)O` [LLA, α-linolenic acid], the entries for the “HCMV yield, fold change relative to no treatment (NT)” value with AD169 strain of HCMV (setting [4]) and in the data set on AD169 strain of HCMV (setting [5]) were “about 1.2 fold” and “reduced”, respectively.

For the compound `CCCCCCCC/C=C\CCCCCCCC(=O)O` [OA, oleic acid], the figures for the “HCMV yield, fold change relative to no treatment (NT)” value in the data set with AD169 strain of HCMV (setting [4]) and in the data set with AD169 strain of HCMV (setting [5]) were “reduced the yield of HCMV” and “reduced”, respectively. For the same compound, in the data set on VZV [1] (100 μM), the “VZV production, factor of reduction” value is on record as 2. Further, in the data set with MRC5 cells, the “Cytotoxicity / cellular toxicity” value is reported as “without causing observable cellular toxicity”.

Consider `CCCCCCCCCCCCCCCCCCCCCCCCCCCC(=O)O` [OSA, octacosanoic acid], for which, in the data set on VZV [1], the “VZV yield relative to no treatment (NT)” value is recorded as “improved virus yields in comparison to no treatment”.

Turning to `Cc1c(C)c2c(c(C)c1O)CC[C@@](C)(CCC[C@H](C)CCC[C@H](C)CCCC(C)C)O2` [alpha-tocopherol], the “HCMV production relative to no treatment (NT)” value in the data set with AD169 strain of HCMV (Example 2, FIG. 2, scavenging compound alone from 2 h after infection, MRC5, 96 h) was “enhances the production of HCMV”.

With `N=C(N)NN` [aminoguanidine], the “HCMV yield, fold change relative to no treatment (NT)” value with AD169 strain of HCMV (setting [4]) is on record as “about 2.6 fold”.

As for `CC(C)CCC[C@@H](C)[C@H]1CC[C@H]2[C@@H]3CC=C4C[C@@H](O)CC[C@]4(C)[C@H]3CC[C@]12C` [cholesterol], the “HCMV yield, fold change relative to no treatment (NT)” value with AD169 strain of HCMV (setting [4]) is on record as “no effect on HCMV yield”. For the same compound, the “HCMV yield, effect on the enhancing effects of fatty acids” value in the data set on AD169 strain of HCMV (cholesterol (up to about 13 μM) together with fatty acids, MRC5, 96 h after infection) is “did not improve, and in some cases inhibited”. The “VZV yield, factor relative to no treatment” value with VZV [2] (13 μM cholesterol, MOI 1:100, 72 hr after infection) is recorded as “increased the yield of VZV by a factor of about two”.

`COC(=O)CCC(=O)C(=O)OC` [α-kg, dimethyl-α-ketoglutarate]: the “Production of cell-free HCMV, fold increase relative to 2 mM GlutaMAX control” value with AD169 strain of HCMV (7 mM α-kg replacing glutamine, glutamine/GlutaMAX-free DMEM, 10% dialyzed FCS, 0.5 infectious units/cell, 96 hours post infection) turned out to be 4.3 fold. For the same compound, the “VZV replication / titers” value in the data set with VZV [2] (1 mM α-kg in the absence of GlutaMAX, MOI 1:100, 72 h) is given as “unable to support virus replication”; in the data set on VZV [2] (2.5 mM α-kg in the absence of GlutaMAX, MOI 1:100, 72 h), “unable to support virus replication”. The “VZV yield, fold increase relative to GlutaMAX (NT; 2 mM)” value with VZV [2] (7 mM α-kg alone, glutamine/GlutaMAX-free medium, MOI 1:50, added 6 hpi, 72 h) was found to be 3.4 fold. Also, the “VZV replication, fold enhancement compared to the addition of 2 mM GlutaMAX” value with VZV [2] (7 mM α-kg in the absence of GlutaMAX, MOI 1:100, 72 h) amounted to 2.8 fold. Also, the “VZV yield, fold increase” value with VZV [2] (7 mM α-kg in the presence of 2 mM GlutaMAX, MOI 1:100, added 6 h, 72 h) is “about 2.1 fold”. Further, in the data set on VZV [2] (MRC5, MOI 1:100, 72 h), the “Concentration required to optimally support the replication of VZV” value is given as greater than 2.5 mM. Further, the results for the “VZV yield, factor of increase” value in the data set with VZV [2] (glutamine-free medium supplemented with dialyzed serum (10% dialyzed FCS)) and in the data set with VZV [2] (glutamine/GlutaMAX-free medium containing normal serum (10% FCS)) were roughly 9.7 and roughly 3.7 fold, respectively.
